Test results reported in patent US20260363244A1, “HERBICIDAL COMPOSITIONS COMPRISING URACILS” (BASF SE, priority 2022, published 2026).
Read-outs that look alike come from different tables or passages of the source.

Experiments:
Assay type in all cases: in vivo
Amaranthus tamariscinus = assay: greenhouse post-emergence herbicidal activity, AMATA; details: read-out: % activity (solo application); for activity at 0.4 g/ha: 0.4 gai/ha
Description: (§1) The following examples serve to illustrate the invention.
(§2) The culture containers used were plastic pots containing loamy sand with approximately 3.0% of humus as substrate. The seeds of the test plants were sown separately for each species.
(§3) For the post-emergence treatment, the test plants were grown to a plant height of from 3 to 15 cm, depending on the plant habit, and only then treated with the active compounds which had been suspended or emulsified in water. To this end, the test plants were either sown directly, and grown in the same containers, or they were first grown separately as seedlings and transplanted into the test containers a few days prior to treatment.
(§4) Depending on the species, the plants were kept at 10-25 °C and 20-35 °C, respectively. The test period extended over 2 to 4 weeks. During this time, the plants were tended and their response to the individual treatments was evaluated.
(§5) Evaluation was carried out using a scale from 0 to 100. 100 means no emergence of the plants, or complete destruction of at least the above-ground parts, and 0 means no damage or normal course of growth. A good herbicidal activity is given at values of at least 70, and very good herbicidal activity is given at values of at least 85.
(§6) The respective stated components A and B, and if appropriate, C were formulated as a 5% by weight strength emulsion concentrate and, with addition of the amount of solvent system, introduced into the spray liquor used for applying the active compound. In the examples, the solvent used was water.
(§7) In the examples below, using the method of S. R. Colby (1967) “Calculating synergistic and antagonistic responses of herbicide combinations”, Weeds 15, p. 22ff., the value E, which is expected if the activity of the individual active compounds is only additive, was calculated.
(§8) E=X+Y−(X·Y/100) • where • X=percent activity using active compound A at an application rate a; • Y=percent activity using active compound B at an application rate b; • E=expected activity (in %) by A+B at application rates a+b.
(§9) The plants used in the greenhouse experiments were of the following species
(§10) In this context, a.i. means active ingredient, based on 100% active ingredient.
(§11) As indicated the application was post emergent (POST) at the respective growth stage (GS) of the weed.
(§12) Assessment was at the indicated days after treatment (DAT).

Brachiaria decumbens = assay: greenhouse post-emergence herbicidal activity, BRADC; details: for activity at […]: Urochloa decumbens, post-emergence, read-out: % activity (solo application)
Description: as §1, §2, §3, §4, §5, §6, §7, §8, §9, §10, §11, §12

Abutilon theophrasti = assay: greenhouse post-emergence herbicidal activity, ABUTH; details: read-out: % activity (solo application); for activity at 0.4 g/ha: 0.4 gai/ha; for activity at 0.8 g/ha: 0.8 gai/ha
Description: as §1, §2, §3, §4, §5, §6, §7, §8, §9, §10, §11, §12

Lolium multiflorum = assay: greenhouse post-emergence herbicidal activity, LOLMU; details: for activity at […]: Lolium multiflorum, post-emergence, 3.2 gai/ha, read-out: % activity (solo application)
Description: as §1, §2, §3, §4, §5, §6, §7, §8, §9, §10, §11, §12

Echinocloa crus-galli = assay: greenhouse post-emergence herbicidal activity, ECHCG; details: for activity at 0.4 g/ha: Echinochloa crus-galli, post-emergence, 0.4 gai/ha, read-out: % activity (solo application); for % activity: solo application, ECHCG
Description: as §1, §2, §3, §4, §5, §6, §7, §8, §9, §10, §11, §12

Kochia scoparia = assay: greenhouse post-emergence herbicidal activity, KCHSC; details: for activity at 0.4 g/ha: 0.4 gai/ha; for % activity: solo application, KCHSC
Description: as §1, §2, §3, §4, §5, §6, §7, §8, §9, §10, §11, §12

Sorghum halepense = assay: greenhouse post-emergence herbicidal activity, SORHA; details: GS 11-33, 20 DAT
Description: as §1, §2, §3, §4, §5, §6, §7, §8, §9, §10, §11, §12

Setaria viridis = assay: greenhouse post-emergence herbicidal activity, SETVI; details: for activity at 0.4 g/ha / activity at 0.8 g/ha / activity at […]: Setaria viridis, post-emergence, read-out: % activity (solo application); for activity at 0.4 g/ha: 0.4 gai/ha; for activity at 0.8 g/ha: 0.8 gai/ha; for % activity: solo application, SETVI
Description: as §1, §2, §3, §4, §5, §6, §7, §8, §9, §10, §11, §12

Avena fatua = assay: greenhouse post-emergence herbicidal activity, AVEFA; details: read-out: % activity (solo application); for activity at 0.4 g/ha: 0.4 gai/ha
Description: as §1, §2, §3, §4, §5, §6, §7, §8, §9, §10, §11, §12

Digitaria sanguinales = assay: greenhouse post-emergence herbicidal activity, DIGSA
Description: as §1, §2, §3, §4, §5, §6, §7, §8, §9, §10, §11, §12

Setaria faberi = assay: greenhouse post-emergence herbicidal activity, SETFA; details: Setaria faberi, post-emergence, 480 h, GS 11-33, 20 DAT, read-out: % activity (solo application)
Description: as §1, §2, §3, §4, §5, §6, §7, §8, §9, §10, §11, §12

Commenline benghalensis = assay: greenhouse post-emergence herbicidal activity, COMBE; details: read-out: % activity (solo application); for activity at […]: 168 h, GS 11-33, 7 DAT
Description: as §1, §2, §3, §4, §5, §6, §7, §8, §9, §10, §11, §12

Eleusine indica = assay: greenhouse post-emergence herbicidal activity, ELEIN; details: read-out: % activity (solo application); for activity at 0.4 g/ha: 0.4 gai/ha
Description: as §1, §2, §3, §4, §5, §6, §7, §8, §9, §10, §11, §12

[1] = 192 h, GS 11-33, 8 DAT, 3.2 gai/ha
[2] = 480 h, GS 11-33, 20 DAT, 3.2 gai/ha
[3] = 168 h, GS 11-33, 7 DAT, 3.2 gai/ha
[4] = GS 11-33, 20 DAT, use rate 0.4 gai/ha
[5] = 480 h, GS 11-33, 20 DAT, 1.6 gai/ha

C=C[C@]1(C(=O)N[C@H]2CO[C@@H](C(=O)OC)C2)CC(c2cc(F)cc(F)c2)=NO1 (mixture of isomers) [ISOX-8, methyl (2RS,4RS)-4-({[(5S)-3-(3,5-difluorophenyl)-5-vinyl-4,5-dihydroisoxazol-5-yl]carbonyl}amino)tetrahydrofuran-2-carboxylate]
activity at 0.4 g/ha (Amaranthus tamariscinus; 168 h, GS 11-33, 7 DAT): 40% | activity at 0.4 g/ha (Amaranthus tamariscinus; 480 h, GS 11-33, 20 DAT): 35% | activity at 0.8 g/ha (Amaranthus tamariscinus; 480 h, GS 11-33, 20 DAT, 0.8 gai/ha): 75% | activity at […] (Brachiaria decumbens; 192 h, GS 11-33, 8 DAT, 1.6 gai/ha): 25% | activity at […] (Brachiaria decumbens; [1]): 50% | activity at […] (Brachiaria decumbens; [2]): 30% | % activity (Brachiaria decumbens; solo application, BRADC, GS 11-33, 20 DAT, use rate 1.6 gai/ha): 20% | activity at 0.4 g/ha (Abutilon theophrasti; 168 h, GS 11-33, 7 DAT): 5% | activity at 0.8 g/ha (Abutilon theophrasti; 168 h, GS 11-33, 7 DAT): 5% | activity at […] (Abutilon theophrasti; 168 h, GS 11-33, 7 DAT, 1.6 gai/ha): 10% | activity at […] (Abutilon theophrasti; [3]): 15% | activity at 0.4 g/ha (Abutilon theophrasti; 480 h, GS 11-33, 20 DAT): 5% | activity at 0.8 g/ha (Abutilon theophrasti; 480 h, GS 11-33, 20 DAT): 5% | activity at […] (Abutilon theophrasti; [2]): 20% | activity at […] (Lolium multiflorum; 168 h, GS 11-33, 7 DAT): 50% | activity at […] (Lolium multiflorum; 480 h, GS 11-33, 20 DAT): 80% | % activity (Lolium multiflorum; solo application, LOLMU, GS 11-33, 7 DAT, use rate 3.2 gai/ha): 50% | activity at 0.4 g/ha (Echinocloa crus-galli; 168 h, GS 11-33, 7 DAT): 15% | activity at 0.4 g/ha (Echinocloa crus-galli; 480 h, GS 11-33, 20 DAT): 10% | % activity (Echinocloa crus-galli; [4]): 10% | % activity (Echinocloa crus-galli; GS 11-33, 20 DAT, use rate 0.8 gai/ha): 35% | activity at 0.4 g/ha (Kochia scoparia; Bassia scoparia, post-emergence, 168 h, GS 11-33, 7 DAT, read-out: % activity (solo application)): 10% | activity at 0.8 g/ha (Kochia scoparia; Bassia scoparia, post-emergence, 168 h, GS 11-33, 7 DAT, 0.8 gai/ha, isoxazolin, read-out: % activity (solo application)): 25% | activity at […] (Kochia scoparia; Bassia scoparia, post-emergence, 168 h, GS 11-33, 7 DAT, 3.2 gai/ha, read-out: % activity (solo application)): 55% | activity at 0.4 g/ha (Kochia scoparia; Bassia scoparia, post-emergence, 480 h, GS 11-33, 20 DAT, read-out: % activity (solo application)): 10% | activity at […] (Kochia scoparia; Bassia scoparia, post-emergence, 480 h, GS 11-33, 20 DAT, 1.6 gai/ha, read-out: % activity (solo application)): 60% | activity at […] (Kochia scoparia; Bassia scoparia, post-emergence, 480 h, GS 11-33, 20 DAT, 3.2 gai/ha, read-out: % activity (solo application)): 70% | % activity (Kochia scoparia; GS 11-33, 7 DAT, use rate 3.2 gai/ha): 55% | % activity (Kochia scoparia; [4]): 10% | activity at 0.8 g/ha (Sorghum halepense; Sorghum halepense, post-emergence, 480 h, 0.8 gai/ha, isoxazolin, read-out: % activity (solo application)): 55% | activity at […] (Sorghum halepense; Sorghum halepense, post-emergence, 480 h, 1.6 gai/ha, read-out: % activity (solo application)): 60% | activity at […] (Sorghum halepense; Sorghum halepense, post-emergence, 480 h, 3.2 gai/ha, read-out: % activity (solo application)): 85% | % activity (Sorghum halepense; solo application, SORHA, use rate 0.8 gai/ha): 35% | activity at 0.4 g/ha (Setaria viridis; 192 h, GS 11-33, 8 DAT): 10% | activity at 0.8 g/ha (Setaria viridis; 192 h, GS 11-33, 8 DAT): 25% | activity at […] (Setaria viridis; [1]): 40% | activity at 0.4 g/ha (Setaria viridis; 480 h, GS 11-33, 20 DAT): 10% | activity at 0.8 g/ha (Setaria viridis; 480 h, GS 11-33, 20 DAT): 25% | activity at […] (Setaria viridis; [5]): 50% | activity at […] (Setaria viridis; [2]): 85% | % activity (Setaria viridis; GS 11-33, 8 DAT, use rate 0.4 gai/ha): 10% | % activity (Setaria viridis; GS 11-33, 8 DAT, use rate 3.2 gai/ha): 40% | activity at 0.4 g/ha (Avena fatua; 168 h, GS 11-33, 7 DAT): 25% | activity at […] (Avena fatua; [3]): 70% | activity at 0.4 g/ha (Avena fatua; 480 h, GS 11-33, 20 DAT): 60% | activity at […] (Avena fatua; [5]): 85% | activity at […] (Avena fatua; [2]): 90% | activity at 0.4 g/ha (Digitaria sanguinales; Digitaria, post-emergence, 192 h, GS 11-33, 8 DAT, 0.4 gai/ha, read-out: % activity (solo application)): 10% | activity at […] (Digitaria sanguinales; Digitaria, post-emergence, 480 h, GS 11-33, 20 DAT, 3.2 gai/ha, read-out: % activity (solo application)): 60% | % activity (Digitaria sanguinales; solo application, DIGSA, GS 11-33, 20 DAT, use rate 0.8 gai/ha): 10% | activity at 0.4 g/ha (Setaria faberi; 0.4 gai/ha): 20% | activity at […] (Setaria faberi; 1.6 gai/ha): 60% | activity at […] (Setaria faberi; 3.2 gai/ha): 90% | activity at […] (Commenline benghalensis; 1.6 gai/ha): 45% | activity at […] (Commenline benghalensis; 3.2 gai/ha): 45% | activity at 0.4 g/ha (Commenline benghalensis; 480 h, GS 11-33, 20 DAT, 0.4 gai/ha): 15% | activity at 0.4 g/ha (Eleusine indica; 168 h, GS 11-33, 7 DAT): 10% | activity at 0.4 g/ha (Eleusine indica; 480 h, GS 11-33, 20 DAT): 5% | activity at […] (Eleusine indica; [2]): 70%
